The nature of data set [1]: Micafungin concentration in serum of the patient. It is filed as in vivo, human. The following applies: one patient, single measurement. As for the experimental part: C. krusei has been identified with the use of CHROMagar™ with subsequent identification by Maldi-TOF, with database MALDI BDAL Database version 8.0. Micafungin concentrations were measured (laboratory of pharmacy, University Hospital Nijmegen, the Netherlands) in serum and joint fluid. The concentrations in […] and concentration in synovial fluid 24 hours after installation of 3mg of micafungin in the knee was 11mg/L at day 19, as well presented in Table 1. Reference concentrations of micafungin in serum derived from 2 studies in critically ill patients trough level 1.4–3.1 mg/L were described. […] Administration of 100mg once daily results in trough serum concentration levels of 2 mg-L [14]. In hematology patients reference concentrations after intravenous micafungin are available as well [15].

Data set [2] in a line: Micafungin concentration in joint (synovial) fluid of the patient after intra-articular instillation. The format is in vivo, human. The following applies: one patient; day 19; joint fluid aspirated 24 hours after intra-articular instillation of 3mg micafungin (trough); IA 3mg OD day 17 – day 24; single measurement. As for the experimental part: C. krusei has been identified with the use of CHROMagar™ with subsequent identification by Maldi-TOF, with database MALDI BDAL Database version 8.0. Micafungin concentrations were measured (laboratory of pharmacy, University Hospital Nijmegen, the Netherlands) in serum and joint fluid. The concentrations in serum 12 hours after the administration of 100mg intravenously at day 13 and 16 of therapy were 4.5 and 1.5mg/L respectively and concentration in synovial fluid 24 hours after installation of 3mg of micafungin in the knee was 11mg/L at day 19, as well presented in Table 1. Reference concentrations of micafungin in serum derived from 2 studies in critically ill patients trough level 1.4–3.1 mg/L were described. […] Administration of 100mg once daily results in trough serum concentration levels of 2 mg-L [14]. In hematology patients reference concentrations after intravenous micafungin are available as well [15].

Data set [3] relates to C. krusei. Put plainly: MIC of micafungin for the patient's C. krusei. It is filed as cell-based, Candida krusei. The following applies: isolate of the patient.
Data set [4] in a line: Local toxicity in the knee joint after intra-articular micafungin. It is filed as in vivo, human. The conditions noted are these: one patient; intra-articular instillation, local concentration 11mg/l.
Data set [5] deals with C. krusei knee arthritis. Put plainly: Clinical outcome of C. krusei knee arthritis. The format is in vivo, human. The conditions noted are these: one patient; instillation of micafungin in the knee plus intravenous micafungin and arthroscopic debridement. The source says:
A week later, the patient was readmitted for a second course of chemotherapy and amphotericin-B oral solution was given to prevent a new episode of translocation of C. krusei. During this hospital stay they hit their left knee on the side of the bed. Their knee continued to be painful and as a knee effusion was noted three days after injury, the orthopedic surgeon was consulted. On physical examination a large effusion of their left knee was found. The joint was not visibly red, but was warm on palpation. Their temperature was 38.4° Celsius. A plain knee radiograph of the knee was normal. An aspiration of the affected knee was performed and the joint fluid was sent for culture, this day was considered as day 0. Day 1 the joint aspiration grew C. krusei for which intravenous micafungin was restarted at a dose of 100mg twice daily. As the patient was deeply thrombopenic as well as neutropenic at that time, no arthroscopic drainage and lavage was performed but instead the knee was repeatedly drained by needle aspiration. On the day of the first needle aspiration of the knee and for the next 10 days, blood cultures were positive for C. krusei as well. Furthermore, repeated needle aspirations of the knee continued to grow C. krusei. An echocardiography at day 6 was normal. […]

The conditions of data set [6]: critically ill patients, 2 studies; cited from earlier work.
For data set [7] the following is noted: healthy subjects; cited from earlier work.
The conditions of data set [8]: reconstitution in NaCl 0.9%; cited from earlier work. The source says: Synovial fluid is a transudate of plasma, so dissolution of micafungin in synovial fluid will be likely. Moreover, diffusion from plasma to the synovial fluid will occur. Unfortunately, data about the extent of diffusion from plasma to the synovial fluid are not available. The possible side effects as well as the possible toxic effects on cartilage of micafungin when administered directly into a joint are unknown. However, we decided to administer micafungin through direct intra-articular instillation as, despite prolonged high-dose intravenous micafungin therapy, blood as well as synovial cul ...

Starred links: 1 amine or outer side, 2 acyl side, 3 side chain; linkers in the order of their positions; H or OH if unused. Positions of bridges follow the written chain, without caps; N, C: chain ends. Non-standard residues stand in square brackets, D forms with d. Residues, ends and D or L forms follow the SMILES beside them. *: point of attachment. hTyr(3S-OH,4S-OH,3'-OSO3H) = N[C@H](C(=O)O)[C@H](O)[C@@H](O)c1ccc(O)c(OS(=O)(=O)O)c1; Orn(4R-OH,5R-OH) = O=C([C@H](C[C@@H](O)[C@@H](O)N[*:3])N[*:1])[*:2]; Pro(3S-OH,4S-Me) = C[C@H]1CN[C@H](C(=O)O)[C@H]1O; X1 = CCCCCOc1ccc(-c2cc(-c3ccc(C(=O)*)cc3)no2)cc1; Gln(3R-OH) = NC(=O)C[C@@H](O)[C@H](N)C(=O)O; Hyp = O=C(O)[C@@H]1C[C@@H](O)CN1

As for `CCCCCOc1ccc(-c2cc(-c3ccc(C(=O)N[C@H]4C[C@@H](O)[C@@H](O)NC(=O)[C@@H]5[C@@H](O)[C@@H](C)CN5C(=O)[C@H]([C@H](O)CC(N)=O)NC(=O)[C@H]([C@H](O)[C@@H](O)c5ccc(O)c(OS(=O)(=O)O)c5)NC(=O)[C@@H]5C[C@@H](O)CN5C(=O)[C@H]([C@@H](C)O)NC4=O)cc3)no2)cc1` [micafungin] (X1-[Orn(4R-OH,5R-OH)]T[Hyp][hTyr(3S-OH,4S-OH,3'-OSO3H)][Gln(3R-OH)][Pro(3S-OH,4S-Me)]; lactam 1-C), in data set [1] (12 hours after administration of 100mg intravenously, day 16 of therapy), the “Micafungin concentration in serum” value amounted to 1.5 mg/L. Also, the “Micafungin concentration (trough serum)” value in data set [1] (day 14, IV 100mg BID day 1 – day 15) is listed as 4.5 mg/L. Besides, in data set [1] (day 17 (day of surgery), IV 200mg OD day 16 – day 32), the “Micafungin concentration (trough serum)” value came to 1.5 mg/L. Besides, the “Micafungin concentration in synovial fluid (joint)” value in data set [2] amounted to 11 mg/L. For the same compound, the “MIC of the C. krusei” value in data set [3] is 0.125 µg/mL. The “Local toxicity of the joint” value in data set [4] was “no local toxicity was observed”. The Clinical outcome in data set [5] was “completely recovered”. Further, in data set [6], the “Reference concentration of micafungin in serum, trough level” value is 1.4 to 3.1 mg/L. For the same compound, in data set [7], the Half-life was 15 h and the Volume of distribution is recorded as 0,2 L/kg. The pH after reconstitution in data set [8] is 5–7.

The values are drawn from article PMC7036544, “Persistent candida arthritis successfully treated with micafungin instillation and surgery. A case report” (Medical Mycology Case Reports, 2019).
